Assay results published in ChEMBL document CHEMBL5291721, “A preclinical secondary pharmacology resource illuminates target-adverse drug reaction associations of marketed drugs” (Nat Commun, 2023).

Legend:
Adenosine receptor A1 = target: T1, Adenosine receptor A1 (Homo sapiens, UniProt P30542)
T1 sequence (P30542 whole entry): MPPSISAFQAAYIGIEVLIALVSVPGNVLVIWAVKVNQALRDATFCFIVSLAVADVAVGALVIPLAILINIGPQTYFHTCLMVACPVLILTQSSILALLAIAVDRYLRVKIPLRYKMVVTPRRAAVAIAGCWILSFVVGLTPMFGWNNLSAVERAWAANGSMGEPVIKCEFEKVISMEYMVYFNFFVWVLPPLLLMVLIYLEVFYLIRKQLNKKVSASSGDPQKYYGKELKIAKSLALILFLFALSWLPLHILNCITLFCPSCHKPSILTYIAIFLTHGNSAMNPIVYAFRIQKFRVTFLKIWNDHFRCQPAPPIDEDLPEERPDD

Vasopressin V1a receptor = Vasopressin V1a receptor (Homo sapiens, UniProt P37288)
Sequence of Vasopressin V1a receptor (P37288 whole entry): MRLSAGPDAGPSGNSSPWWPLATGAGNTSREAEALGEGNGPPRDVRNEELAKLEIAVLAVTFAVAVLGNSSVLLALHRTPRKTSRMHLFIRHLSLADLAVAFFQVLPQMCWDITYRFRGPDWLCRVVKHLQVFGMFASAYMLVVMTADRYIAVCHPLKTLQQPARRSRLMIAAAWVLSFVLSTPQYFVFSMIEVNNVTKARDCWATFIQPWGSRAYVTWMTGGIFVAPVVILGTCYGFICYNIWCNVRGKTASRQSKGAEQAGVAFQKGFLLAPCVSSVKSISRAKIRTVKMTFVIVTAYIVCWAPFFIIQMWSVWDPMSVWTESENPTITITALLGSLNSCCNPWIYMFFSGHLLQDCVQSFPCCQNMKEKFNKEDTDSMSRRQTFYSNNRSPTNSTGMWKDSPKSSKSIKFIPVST

[1] = target: T2, Cholecystokinin receptor type A (Homo sapiens, UniProt P32238)
T2 sequence (P32238 whole entry): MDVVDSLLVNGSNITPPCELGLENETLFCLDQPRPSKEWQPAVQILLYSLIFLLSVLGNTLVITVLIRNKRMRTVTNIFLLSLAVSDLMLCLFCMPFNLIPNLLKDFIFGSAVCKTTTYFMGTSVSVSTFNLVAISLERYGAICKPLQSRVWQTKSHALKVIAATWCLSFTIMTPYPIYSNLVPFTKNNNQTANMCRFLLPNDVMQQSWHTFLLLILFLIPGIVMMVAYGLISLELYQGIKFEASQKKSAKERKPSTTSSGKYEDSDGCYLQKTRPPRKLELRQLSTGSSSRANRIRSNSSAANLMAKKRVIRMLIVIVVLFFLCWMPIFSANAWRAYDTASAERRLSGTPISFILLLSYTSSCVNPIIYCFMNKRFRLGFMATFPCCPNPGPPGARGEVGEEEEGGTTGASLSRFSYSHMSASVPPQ

[2] = target: T3, Gamma-aminobutyric acid receptor subunit alpha-1 (Rattus norvegicus, UniProt P62813); assay type: functional
T3 sequence (P62813 whole entry): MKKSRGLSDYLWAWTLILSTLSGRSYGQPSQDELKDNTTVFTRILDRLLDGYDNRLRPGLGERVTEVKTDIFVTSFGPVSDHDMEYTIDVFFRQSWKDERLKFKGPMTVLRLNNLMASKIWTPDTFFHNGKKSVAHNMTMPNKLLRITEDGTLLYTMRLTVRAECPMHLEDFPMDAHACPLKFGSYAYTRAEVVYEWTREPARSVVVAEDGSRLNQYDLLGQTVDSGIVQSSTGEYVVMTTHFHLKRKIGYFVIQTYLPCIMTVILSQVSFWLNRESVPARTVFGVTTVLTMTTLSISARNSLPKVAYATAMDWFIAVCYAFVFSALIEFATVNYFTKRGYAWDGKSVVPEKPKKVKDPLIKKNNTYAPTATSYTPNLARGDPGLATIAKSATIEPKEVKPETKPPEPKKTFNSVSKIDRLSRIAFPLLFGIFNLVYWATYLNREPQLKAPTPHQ

[3] = target: T4, 5-hydroxytryptamine receptor 3A (Homo sapiens, UniProt P46098); assay type: functional
T4 sequence (P46098 whole entry): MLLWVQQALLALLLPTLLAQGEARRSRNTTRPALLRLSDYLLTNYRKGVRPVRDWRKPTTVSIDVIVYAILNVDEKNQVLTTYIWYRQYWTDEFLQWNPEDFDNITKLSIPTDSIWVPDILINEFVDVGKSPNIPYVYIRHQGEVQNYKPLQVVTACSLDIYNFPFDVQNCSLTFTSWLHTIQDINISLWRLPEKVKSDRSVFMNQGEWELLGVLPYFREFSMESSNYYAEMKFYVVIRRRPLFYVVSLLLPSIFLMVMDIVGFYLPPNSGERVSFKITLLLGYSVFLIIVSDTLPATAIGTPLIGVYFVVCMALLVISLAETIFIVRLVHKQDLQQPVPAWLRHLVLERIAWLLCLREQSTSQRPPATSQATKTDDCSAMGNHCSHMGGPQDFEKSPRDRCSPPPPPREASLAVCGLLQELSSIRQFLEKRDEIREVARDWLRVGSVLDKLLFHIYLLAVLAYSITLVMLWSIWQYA

[4] = target: Beta-1 adrenergic receptor (Homo sapiens, UniProt P08588); assay type: functional
Sequence of Beta-1 adrenergic receptor (P08588 whole entry): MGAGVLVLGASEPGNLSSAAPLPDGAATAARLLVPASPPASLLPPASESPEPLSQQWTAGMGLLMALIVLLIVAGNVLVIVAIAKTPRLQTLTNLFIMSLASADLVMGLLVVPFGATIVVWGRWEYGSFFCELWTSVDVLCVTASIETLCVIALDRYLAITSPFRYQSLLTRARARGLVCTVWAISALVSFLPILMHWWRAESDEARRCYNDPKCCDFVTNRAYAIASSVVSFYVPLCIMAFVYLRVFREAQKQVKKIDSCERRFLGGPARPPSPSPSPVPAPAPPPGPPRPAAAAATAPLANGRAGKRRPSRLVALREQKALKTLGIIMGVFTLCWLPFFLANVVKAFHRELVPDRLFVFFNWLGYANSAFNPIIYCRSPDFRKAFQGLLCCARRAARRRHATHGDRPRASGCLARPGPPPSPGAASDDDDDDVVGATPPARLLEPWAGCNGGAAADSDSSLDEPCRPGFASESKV

[5] = target: T5, Amine oxidase [flavin-containing] A (Homo sapiens, UniProt P21397); assay type: functional
T5 sequence (P21397 whole entry): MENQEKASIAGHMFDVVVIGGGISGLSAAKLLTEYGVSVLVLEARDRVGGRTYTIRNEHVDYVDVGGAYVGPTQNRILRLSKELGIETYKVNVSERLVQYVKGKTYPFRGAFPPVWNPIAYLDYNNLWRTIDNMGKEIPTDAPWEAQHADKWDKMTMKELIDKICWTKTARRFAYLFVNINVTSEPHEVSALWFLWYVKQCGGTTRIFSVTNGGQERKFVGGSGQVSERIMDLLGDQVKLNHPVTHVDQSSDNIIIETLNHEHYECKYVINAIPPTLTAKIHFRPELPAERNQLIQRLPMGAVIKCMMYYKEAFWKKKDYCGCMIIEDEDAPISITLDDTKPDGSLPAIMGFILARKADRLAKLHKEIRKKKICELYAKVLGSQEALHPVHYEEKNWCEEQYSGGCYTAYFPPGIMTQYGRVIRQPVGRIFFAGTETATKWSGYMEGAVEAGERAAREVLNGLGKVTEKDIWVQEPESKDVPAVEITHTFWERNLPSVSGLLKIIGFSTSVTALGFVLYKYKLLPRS

Histamine H2 receptor = Histamine H2 receptor (Homo sapiens, UniProt P25021); assay type: functional, cell-based
Sequence of Histamine H2 receptor (P25021 whole entry): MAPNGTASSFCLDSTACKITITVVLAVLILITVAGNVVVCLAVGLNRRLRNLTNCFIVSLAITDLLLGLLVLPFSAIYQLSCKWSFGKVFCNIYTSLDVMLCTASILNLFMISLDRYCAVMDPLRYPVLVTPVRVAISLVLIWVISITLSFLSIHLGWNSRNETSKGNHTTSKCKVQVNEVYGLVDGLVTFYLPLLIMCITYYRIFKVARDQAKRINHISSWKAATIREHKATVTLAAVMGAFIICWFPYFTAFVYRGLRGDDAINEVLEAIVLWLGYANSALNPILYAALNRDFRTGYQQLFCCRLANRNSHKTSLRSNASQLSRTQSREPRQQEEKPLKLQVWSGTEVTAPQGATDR

[6] = target: Sodium-dependent dopamine transporter (Homo sapiens, UniProt Q01959)
Sequence of Sodium-dependent dopamine transporter (Q01959 whole entry): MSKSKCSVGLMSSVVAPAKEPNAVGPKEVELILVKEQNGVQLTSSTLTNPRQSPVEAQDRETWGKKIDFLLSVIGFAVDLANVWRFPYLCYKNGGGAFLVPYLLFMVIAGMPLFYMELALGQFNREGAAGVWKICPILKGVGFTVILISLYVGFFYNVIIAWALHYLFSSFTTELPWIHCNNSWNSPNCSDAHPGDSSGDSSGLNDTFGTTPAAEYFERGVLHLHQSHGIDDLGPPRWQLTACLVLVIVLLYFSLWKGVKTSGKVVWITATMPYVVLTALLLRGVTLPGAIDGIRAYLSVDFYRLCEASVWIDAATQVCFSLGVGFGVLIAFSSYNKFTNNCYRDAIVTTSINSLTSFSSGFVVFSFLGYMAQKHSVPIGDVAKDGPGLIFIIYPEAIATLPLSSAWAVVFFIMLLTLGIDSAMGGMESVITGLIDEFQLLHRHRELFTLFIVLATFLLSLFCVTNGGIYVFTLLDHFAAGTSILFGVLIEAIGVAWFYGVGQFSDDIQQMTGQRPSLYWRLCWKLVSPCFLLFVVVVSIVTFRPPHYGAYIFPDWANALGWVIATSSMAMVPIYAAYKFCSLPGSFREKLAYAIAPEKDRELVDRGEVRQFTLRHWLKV

[7] = target: 3',5'-cyclic-AMP phosphodiesterase 4D (Homo sapiens, UniProt Q08499); assay type: functional
Sequence of 3',5'-cyclic-AMP phosphodiesterase 4D (Q08499 whole entry): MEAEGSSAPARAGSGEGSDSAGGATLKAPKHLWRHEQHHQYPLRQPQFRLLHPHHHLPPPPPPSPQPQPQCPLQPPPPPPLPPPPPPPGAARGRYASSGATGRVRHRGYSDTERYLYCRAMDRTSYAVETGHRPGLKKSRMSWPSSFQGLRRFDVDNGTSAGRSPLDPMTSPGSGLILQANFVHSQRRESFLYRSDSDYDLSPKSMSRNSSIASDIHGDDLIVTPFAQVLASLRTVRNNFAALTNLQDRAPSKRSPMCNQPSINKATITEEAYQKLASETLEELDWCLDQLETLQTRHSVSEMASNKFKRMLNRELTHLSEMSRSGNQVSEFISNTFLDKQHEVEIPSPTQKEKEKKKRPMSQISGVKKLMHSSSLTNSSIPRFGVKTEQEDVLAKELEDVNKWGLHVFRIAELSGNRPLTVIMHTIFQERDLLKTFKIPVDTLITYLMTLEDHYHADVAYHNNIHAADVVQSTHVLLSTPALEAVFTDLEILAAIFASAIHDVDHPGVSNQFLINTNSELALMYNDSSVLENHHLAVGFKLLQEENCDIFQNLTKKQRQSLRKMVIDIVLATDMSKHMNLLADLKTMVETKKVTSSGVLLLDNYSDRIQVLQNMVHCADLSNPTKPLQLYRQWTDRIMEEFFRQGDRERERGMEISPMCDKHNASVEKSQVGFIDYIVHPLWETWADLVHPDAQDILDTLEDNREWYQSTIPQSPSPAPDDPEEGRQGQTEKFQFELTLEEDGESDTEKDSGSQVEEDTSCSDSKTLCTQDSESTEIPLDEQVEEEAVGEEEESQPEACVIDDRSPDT

[8] = target: Beta-2 adrenergic receptor (Homo sapiens, UniProt P07550)
Sequence of Beta-2 adrenergic receptor (P07550 whole entry): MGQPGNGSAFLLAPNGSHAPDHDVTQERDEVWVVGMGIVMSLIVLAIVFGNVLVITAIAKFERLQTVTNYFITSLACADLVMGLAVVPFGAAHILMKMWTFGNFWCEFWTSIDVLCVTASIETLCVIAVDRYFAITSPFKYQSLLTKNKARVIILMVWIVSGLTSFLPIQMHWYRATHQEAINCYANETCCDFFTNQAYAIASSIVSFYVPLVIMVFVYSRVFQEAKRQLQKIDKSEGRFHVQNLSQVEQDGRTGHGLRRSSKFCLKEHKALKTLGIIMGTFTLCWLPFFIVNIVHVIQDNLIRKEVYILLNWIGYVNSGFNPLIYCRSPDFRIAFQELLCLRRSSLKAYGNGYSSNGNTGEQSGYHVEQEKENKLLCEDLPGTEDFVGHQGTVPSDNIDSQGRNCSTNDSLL

[9] = target: T3, Gamma-aminobutyric acid receptor subunit alpha-1
[10] = target: Voltage-gated inwardly rectifying potassium channel KCNH2 (Homo sapiens, UniProt Q12809); assay type: functional
Histamine H3 receptor = Histamine H3 receptor (Homo sapiens, UniProt Q9Y5N1)
Sequence of Histamine H3 receptor (Q9Y5N1 whole entry): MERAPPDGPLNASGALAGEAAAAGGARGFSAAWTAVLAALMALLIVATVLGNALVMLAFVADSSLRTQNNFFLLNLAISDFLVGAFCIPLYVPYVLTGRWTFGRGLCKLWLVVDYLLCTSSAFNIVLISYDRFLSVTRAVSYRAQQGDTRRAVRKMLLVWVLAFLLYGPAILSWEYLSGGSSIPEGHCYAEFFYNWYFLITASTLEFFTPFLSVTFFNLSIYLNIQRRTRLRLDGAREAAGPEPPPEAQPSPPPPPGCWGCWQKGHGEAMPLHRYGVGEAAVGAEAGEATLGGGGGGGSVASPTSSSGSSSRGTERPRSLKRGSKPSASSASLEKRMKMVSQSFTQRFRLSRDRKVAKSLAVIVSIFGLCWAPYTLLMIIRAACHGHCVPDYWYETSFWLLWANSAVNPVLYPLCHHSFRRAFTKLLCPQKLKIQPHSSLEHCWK

Measured: AC50
Also: assay procedure not described here.

CC(=O)c1ccc(S(=O)(=O)NC(=O)NC2CCCCC2)cc1 [ACETOHEXAMIDE]
> 30 µM: [3] | [7] | [10]
not listed: Histamine H3 receptor
> 10 µM: all other assays above

Cc1cc(=O)n(-c2ccccc2)n1C [ANTIPYRINE]
> 30 µM: Adenosine receptor A1 | [1] | [3] | [6] | [7] | [10]
not listed: Vasopressin V1a receptor
> 10 µM: all other assays above

O=C(O)c1ccc(NC(=O)[C@H](Cc2ccc(O)cc2)NC(=O)c2ccccc2)cc1 [BENTIROMIDE]
> 30 µM: [3] | [7] | [10]
not listed: Histamine H3 receptor
> 10 µM: all other assays above

NS(=O)(=O)c1cc2c(cc1Cl)N=C(CSCc1ccccc1)NS2(=O)=O [BENZTHIAZIDE]
> 30 µM: [5] | Histamine H2 receptor | [7] | [10]
not listed: Histamine H3 receptor
> 10 µM: all other assays above

CC(CN(C)C)C(C)(O)Cc1ccc(Cl)cc1 (stereo not drawn) [CLOBUTINOL]
8.45 µM: [10]
> 10 µM: Histamine H3 receptor | [2] | [5] | Histamine H2 receptor | [9]
not listed: Vasopressin V1a receptor
> 30 µM: all other assays above

CC(C)[C@@H](C)/C=C/[C@@H](C)[C@H]1CC[C@H]2/C(=C/C=C3\C[C@@H](O)CC[C@@H]3C)CCC[C@]12C [DIHYDROTACHYSTEROL]
> 30 µM: [3] | [7] | [10]
not listed: Histamine H3 receptor
> 10 µM: all other assays above

CCN1CC(CCN2CCOCC2)C(c2ccccc2)(c2ccccc2)C1=O (stereo not drawn) [DOXAPRAM]
10.5 µM: [10]
not listed: Vasopressin V1a receptor
> 30 µM: all other assays above

CCOC(=O)c1ncn2c1CN(C)C(=O)c1cc(F)ccc1-2 [FLUMAZENIL]
not listed: Vasopressin V1a receptor | [2] | [9]
> 30 µM: all other assays above

CC(=O)[C@H]1CC[C@H]2[C@@H]3C[C@H](C)C4=CC(=O)CC[C@]4(C)[C@H]3[C@@H](O)C[C@]12C [MEDRYSONE]
> 30 µM: [3] | [7] | [10]
not listed: Histamine H3 receptor
> 10 µM: all other assays above

CCCC(C)(COC(N)=O)COC(N)=O [MEPROBAMATE]
> 30 µM: [3] | [5] | Histamine H2 receptor | [7] | [10]
not listed: Histamine H3 receptor
> 10 µM: all other assays above

O=C(c1cc(Cc2n[nH]c(=O)c3ccccc23)ccc1F)N1CCN(C(=O)C2CC2)CC1 [OLAPARIB]
11.9 µM: Adenosine receptor A1
> 10 µM: [2] | [5] | [9]
not listed: Histamine H3 receptor
> 30 µM: all other assays above

C[C@]12C/C(=C/O)C(=O)C[C@@H]1CC[C@@H]1[C@@H]2CC[C@@]2(C)[C@H]1CC[C@]2(C)O [OXYMETHOLONE]
not listed: Vasopressin V1a receptor
> 30 µM: all other assays above

CCCN(CCC)S(=O)(=O)c1ccc(C(=O)O)cc1 [PROBENECID]
> 30 µM: [3] | [7] | [10]
not listed: Vasopressin V1a receptor | Histamine H3 receptor
> 10 µM: all other assays above

CCc1nc(N)nc(N)c1-c1ccc(Cl)cc1 [PYRIMETHAMINE]
12 µM: [7]
0.649 µM: [10]
> 30 µM: [3] | [5] | Histamine H2 receptor
2.2 µM: [6]
not listed: Histamine H3 receptor
> 10 µM: all other assays above

CC1=C(/C=C/C(C)=C/C=C/C(C)=C/CO)C(C)(C)CCC1 [RETINOL]
> 30 µM: [3] | [7]
not listed: [10] | Histamine H3 receptor
> 10 µM: all other assays above

Cc1cc(C)nc(NS(=O)(=O)c2ccc(N)cc2)n1 [SULFAMETHAZINE]
> 30 µM: [3] | [5] | Histamine H2 receptor | [7] | [10]
not listed: Vasopressin V1a receptor | Histamine H3 receptor
> 10 µM: all other assays above
